For 31 compounds, IC50 results are on record in patent US20140315933A1, “CHEMICAL COMPOUNDS” (Pfizer Limited, priority 2013, published 2014).

Bounds are passed on as bounds.

T1 sequence (Q96S37 with tags, fused parts or gaps): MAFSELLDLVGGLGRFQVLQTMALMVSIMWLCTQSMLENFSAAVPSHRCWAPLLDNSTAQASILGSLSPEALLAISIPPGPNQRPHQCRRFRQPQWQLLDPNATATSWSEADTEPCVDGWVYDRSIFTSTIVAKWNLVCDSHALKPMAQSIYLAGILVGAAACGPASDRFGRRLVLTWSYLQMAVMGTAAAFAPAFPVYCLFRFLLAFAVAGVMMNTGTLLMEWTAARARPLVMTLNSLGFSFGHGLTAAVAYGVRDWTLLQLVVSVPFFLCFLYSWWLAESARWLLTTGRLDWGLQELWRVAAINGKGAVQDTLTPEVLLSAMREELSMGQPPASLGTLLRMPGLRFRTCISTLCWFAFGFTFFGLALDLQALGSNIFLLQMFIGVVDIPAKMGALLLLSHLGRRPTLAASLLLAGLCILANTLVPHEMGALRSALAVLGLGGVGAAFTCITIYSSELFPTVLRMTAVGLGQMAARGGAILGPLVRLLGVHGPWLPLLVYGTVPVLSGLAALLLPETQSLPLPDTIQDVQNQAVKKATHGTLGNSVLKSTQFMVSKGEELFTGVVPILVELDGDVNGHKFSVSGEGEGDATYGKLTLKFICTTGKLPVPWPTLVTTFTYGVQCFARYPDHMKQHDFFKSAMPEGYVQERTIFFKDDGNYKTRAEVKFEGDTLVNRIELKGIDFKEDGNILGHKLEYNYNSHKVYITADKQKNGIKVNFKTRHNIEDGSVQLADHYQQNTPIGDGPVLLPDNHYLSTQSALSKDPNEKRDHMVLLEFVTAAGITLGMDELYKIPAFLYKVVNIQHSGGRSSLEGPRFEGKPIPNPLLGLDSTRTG

The assay has as its target T1, URAT-1 transporter (Homo sapiens, UniProt Q96S37).
T1 construct: expressed in transfected cells
The assay can be described thus: URAT-1 inhibitor activity: [14C]-uric acid uptake into CHO-URAT1(L)GFP#8 (CHO#8) cells, scintillation proximity. Type of assay: cell-based. The gist of the method:
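Scintillation proximity read-out of 30 nM (final) [14C]-uric acid uptake over three hours at room temperature in chloride-free HEPES buffer pH 7.4. Compounds, 0–10 μM final with 0.25% DMSO, were added 15 minutes before substrate; cells were a clonal CHO line with human URAT1(L)-eGFP, preincubated 1 hour in chloride buffer.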
By IC50 is commonly meant the concentration needed to halve the response being measured. Low values mean greater potency in that assay, high ones weaker potency in that assay. For `N#Cc1cc(S(=O)(=O)Nc2nccs2)ccc1Oc1ccc(C(F)(F)F)cc1Br` [compound 166], the IC50 is 2680 nM.
In turn, `N#Cc1cc(S(=O)(=O)Nc2nccs2)ccc1Oc1cccc(I)c1` [compound 167] came in with a 50% inhibitory concentration (IC50) of 166 nM.
The compound `N#Cc1cc(S(=O)(=O)Nc2nccs2)ccc1Oc1ccc(Br)c(F)c1` [compound 168] returned an IC50 of 161 nM.
In the case of `N#Cc1cc(S(=O)(=O)Nc2nccs2)ccc1Oc1ccc(Cl)c(I)c1` [compound 169] it was 73 nM.
Compound `N#Cc1cc(S(=O)(=O)Nc2nccs2)ccc1Oc1ccc(Br)cc1F` [compound 170] gave an IC50 greater than 1260 nM.
Compound `N#Cc1cc(S(=O)(=O)Nc2nccs2)ccc1Oc1ccc(Br)nc1` [compound 171] showed an IC50 of 671 nM.
Turning to `N#Cc1cc(S(=O)(=O)Nc2nccs2)ccc1Oc1ccc(Cl)nc1` [compound 172], the IC50 stood at 917 nM.
Take `COc1ccc(Oc2ccc(S(=O)(=O)Nc3nccs3)cc2C#N)cn1` [compound 173]: the IC50 was greater than 3660 nM.
In the case of `CC(C)c1cc(C#N)cc(Oc2ccc(S(=O)(=O)Nc3nccs3)cc2C#N)c1` [compound 174], the IC50 was found to be 237 nM.
`N#Cc1cc(S(=O)(=O)Nc2nccs2)ccc1Oc1cccc(CCO)c1` [compound 175] returned a half-maximal inhibitory concentration (IC50) greater than 5440 nM.
In turn, `N#Cc1cc(S(=O)(=O)Nc2nccs2)ccc1Oc1ccccc1CCO` [compound 176] gave an IC50 greater than 6000 nM.
As to `N#Cc1cc(S(=O)(=O)Nc2nccs2)ccc1Oc1cccc(CO)c1` [compound 177], the midpoint of inhibition, the IC50, lay at 584 nM.
Regarding `N#Cc1cc(S(=O)(=O)Nc2nccs2)ccc1Oc1ccc(I)cc1F` [compound 178], the IC50 is 645 nM.
As for `CCc1cc(F)ccc1Oc1ccc(S(=O)(=O)Nc2nccs2)cc1C#N` [compound 179], it took 121 nM to reach half-maximal inhibition (IC50).
`N#Cc1cc(S(=O)(=O)Nc2nccs2)ccc1Oc1cccc(Cl)c1C#N` [compound 180] showed an IC50 of 814 nM.
`N#Cc1cc(S(=O)(=O)Nc2nccs2)ccc1Oc1ccccc1Cl` [compound 181] registered an IC50 of 1220 nM.
Turning to `N#Cc1cc(S(=O)(=O)Nc2nccs2)ccc1Oc1ccccc1Br` [compound 182], half-maximal inhibition (IC50) was put at 1330 nM.
In the case of `N#Cc1cc(S(=O)(=O)Nc2nccs2)ccc1Oc1ccccc1F` [compound 183] it was greater than 6030 nM; in that of `N#Cc1cc(S(=O)(=O)Nc2nccs2)ccc1Oc1ccc(N)cc1` [compound 184], greater than 6240 nM; in that of `N#Cc1cc(Oc2ccc(S(=O)(=O)Nc3ncc(Cl)s3)cc2C#N)ccc1F` [compound 193], 834 nM.
Consider `N#Cc1cc(Oc2ccc(S(=O)(=O)Nc3ncns3)cc2F)ccc1F` [compound 194], for which the IC50 is greater than 7150 nM.
The compound `O=S(=O)(Nc1ncns1)c1ccc(Oc2ccc(F)c(F)c2)c(F)c1` [compound 195] yielded an IC50 of 2240 nM.
`O=S(=O)(Nc1ncns1)c1cc(F)c(Oc2ccc(F)c(F)c2)cc1F` [compound 196]: the IC50 was found to be 1580 nM.
The compound `N#Cc1cc(S(=O)(=O)Nc2ncc(Cl)s2)ccc1Oc1ccc(F)c(F)c1` [compound 197, N-(5-chloro-1,3-thiazol-2-yl)-3-cyano-4-(3,4-difluorophenoxy)benzenesulfonamide] registered an IC50 of 225 nM.
Compound `O=S(=O)(Nc1ncns1)c1cc(F)c(Oc2ccc(F)c(F)c2)c(F)c1` [compound 198] returned an IC50 of 2190 nM.
In the case of `N#Cc1cc(Oc2ccc(S(=O)(=O)Nc3nncs3)cc2C#N)ccc1F` [compound 199] it was greater than 6370 nM; in that of `Cc1cc(S(=O)(=O)Nc2nncs2)c(F)cc1Oc1ccc(F)c(F)c1` [compound 200], greater than 10000 nM.
In the case of `N#Cc1cc(S(=O)(=O)Nc2nncs2)ccc1Oc1ccc(F)c(F)c1` [compound 201] it was 651 nM.
Compound `O=S(=O)(Nc1ncns1)c1ccc(Oc2ccc(F)c(F)c2)c(Cl)c1` [compound 202] gave an IC50 of 823 nM.
In the case of `N#Cc1ccc(Oc2ccc(S(=O)(=O)Nc3nncs3)cc2Cl)cc1Cl` [compound 203] it was 387 nM; in that of `O=S(=O)(Nc1nncs1)c1ccc(Oc2ccc(F)c(F)c2)c(Cl)c1` [compound 204], 317 nM.
